Results as given in PubChem BioAssay (NCI).
Values joined by “and” are separate entries in the source; they are usually repeats but may differ in a detail not shown here. Equal entries are not always repeated.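 Interpolation was linear, between the two tested concentrations surrounding the appropriate level; five concentrations were tested over 48 hours in 96-well plates. GI50 = concentration required for 50% inhibition of growth. Definition used: TGI = concentration required for complete inhibition of growth.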

Legend:
Experiment in all cases: NCI tumour cell line growth inhibition, 48 h
OVCAR-4 ovarian = tested on: OVCAR-4 ovarian
SR leukemia = tested on: SR leukemia
SNB-75 CNS = tested on: SNB-75 CNS
HL-60(TB) leukemia = tested on: HL-60(TB) leukemia
SK-MEL-28 melanoma = tested on: SK-MEL-28 melanoma
A498 renal = tested on: A498 renal
A549 NSCLC = tested on: A549 NSCLC
KM12 colon = tested on: KM12 colon
CAKI-1 renal = tested on: CAKI-1 renal
SK-MEL-2 melanoma = tested on: SK-MEL-2 melanoma

Row | SMILES | GI50 (OVCAR-4 ovarian) | TGI (OVCAR-4 ovarian) [µM] | GI50 (SR leukemia) | GI50 (SNB-75 CNS) | TGI (SNB-75 CNS) | GI50 (HL-60(TB) leukemia) | TGI (HL-60(TB) leukemia) | GI50 (SK-MEL-28 melanoma) | GI50 (A498 renal) | TGI (A498 renal) | GI50 (A549 NSCLC) | TGI (A549 NSCLC) [µM] | GI50 (KM12 colon) | TGI (KM12 colon) | GI50 (CAKI-1 renal) | TGI (CAKI-1 renal) | GI50 (SK-MEL-2 melanoma) | TGI (SK-MEL-2 melanoma) | TGI (SR leukemia) | TGI (SK-MEL-28 melanoma)
1 | CC[C@@]1(O)C(=O)OCc2c1cc1n(c2=O)Cc2cc3c(N)c(OC)ccc3nc2-1 | 0.229 µM | 1.36 | < 0.01 µM | 0.0339 µM | 0.265 µM | 0.0266 µM | 0.187 µM | 0.466 µM | 0.156 µM | 0.726 µM | 0.0445 µM | 1.91 | 0.292 µM | 2.24 µM | 0.0251 µM | 0.796 µM | 0.439 µM | 1.47 µM |  | 
2 | Nc1ccccc1SC(CC(=O)c1ccccc1)c1c(Cl)cccc1Cl (stereo unspecified) | 4.84 µM | 18.4 | 1.45 µM | 10.8 µM | 30.1 µM | 3.36 µM | 11.7 µM | 11.6 µM | 11.2 µM | 24 µM | 21.8 µM | 58.1 | 2.26 µM | 5.4 µM | 4.9 µM | 39.9 µM | 6.33 µM | 18.2 µM | 5.79 µM | 23.9 µM
3 | CC12CC(Br)(Br)C(=O)C3C1CCCC32 |  | 10.4 |  |  | 22.9 µM |  | 9.33 µM |  |  | 31.1 µM |  | 36.5 |  | 28.3 µM |  | 6.05 µM |  | 30.4 µM | 13.6 µM | 6.61 µM
4 | CCCCCCCCCCCCNC(=S)OCCCC |  | > 100 |  |  | > 100 µM |  | 40.4 µM |  |  | > 100 µM |  | > 100 |  | > 100 µM |  | > 100 µM |  | 62.2 µM | > 100 µM | > 100 µM
5 | O=C1c2c[n+](Cc3ccccc3)ccc2-c2nc3ccccc3c3ccnc1c23 | 0.468 µM | 0.92 | 0.066 µM | 0.804 µM | 3.71 µM | 0.72 µM | 1.93 µM | 0.954 µM | 0.532 µM | 1.97 µM | 0.323 µM | 1.99 | 1.06 µM | 4.28 µM | 1.2 µM | 9.37 µM | 0.646 µM | 1.77 µM | 3.6 µM | 3.95 µM
6 | CC(C)CC1CC2C(=O)N(c3ccccc3)C(=O)C2c2[nH]c3ccccc3c21 (stereo unspecified) |  | > 38.5 |  |  | 30.6 µM |  | > 31.6 µM |  |  | > 51.3 µM |  | > 53.8 |  | > 100 µM |  | 72.7 µM |  | 59.8 µM | 76.4 µM | > 55.7 µM
7 | CCOC(=O)c1ccc(N[C@@H]2c3cc4c(cc3C(c3cc(OC)c(O)c(OC)c3)[C@H]3C(=O)OCC32)OCO4)cc1 (stereo partly specified) |  | 12.6 | 0.0303 µM | 0.308 µM | 0.909 µM and 4.98 µM | 0.0114 µM | 0.282 µM and 0.889 µM | 0.935 µM | 0.332 µM | 1.92 µM | 0.103 µM | 2.76 | 0.875 µM | 5.29 µM | 0.109 µM | 0.854 µM and 3.88 µM |  | 6.27 µM | 0.32 µM and 0.742 µM | 8.59 µM
8 | CC1(C)CCOC(Sc2ccccc2)C1 (stereo unspecified) |  | > 100 |  |  | > 100 µM |  | 34.4 µM |  |  | > 100 µM |  | > 100 |  | > 100 µM |  | > 100 µM |  | 69.9 µM | > 100 µM | > 100 µM
9 | O=C(Nc1ccc(Br)cc1)c1cc(Br)ccc1O | 0.452 µM and 1.17 µM | > 100 | 0.291 µM and 0.554 µM | 0.348 µM and 1.34 µM | 3.07 µM and 14.3 µM | 0.408 µM and 1.12 µM | 4.54 µM and 3.8 µM | 0.314 µM and 1.44 µM | 0.219 µM and 0.358 µM | 0.841 µM and 1.82 µM | 1.09 µM and 2.5 µM | > 100 | 1.67 µM and 2 µM | 4.99 µM and 5.31 µM | 0.333 µM and 1.21 µM | 2.49 µM and 5.62 µM | 0.278 µM and 1.74 µM | 1.25 µM and 5 µM | 3.23 µM | 2.17 µM and 5.14 µM
10 | C=CC(=O)N1CCN(c2nc(OC[C@@H]3CCCN3C)nc3c(F)c(-c4nc(N)cc(C)c4C(F)(F)F)c(Cl)cc23)[C@@H](C)C1 | 1.59 µM | 3 | 1.77 µM | 1.22 µM | 2.74 µM | 2.91 µM | > 100 µM | 1.75 µM | 5.34 µM | 19.3 µM | 3.36 µM | 13.6 | 2.11 µM | 4.56 µM | 1.51 µM | 2.95 µM | 2.05 µM | 4.34 µM | 4.54 µM | 3.21 µM
11 | CC(=O)OC1C(C)OC(Oc2c(-c3ccc(O)cc3)oc3cc(O)cc(O)c3c2=O)C(O)C1OC(C)=O (stereo unspecified) | 35.9 µM | > 100 | 25 µM | 27.5 µM | > 93.9 µM | 23.9 µM | 61.3 µM | 29 µM | > 52.4 µM | > 100 µM | 49.8 µM | > 100 | 29.4 µM | > 83.8 µM | 41.4 µM | > 100 µM | 21.1 µM | 49.3 µM | 65 µM | > 100 µM
12 | COc1cccc(C2=C(c3cn(C)c4c(C)cccc34)C(=O)NC2=O)c1 | > 14.3 µM | > 25 | > 19.6 µM | 0.909 µM | > 25 µM | > 25 µM | > 25 µM | > 25 µM | 5.89 µM | > 21.9 µM | > 23.2 µM | > 25 | > 21 µM | > 25 µM | > 14.1 µM | > 25 µM | > 16.9 µM | > 25 µM | > 25 µM | > 25 µM
13 | O=C1C2C3C=CC(C2C(=O)N1CN1CCOCC1)C1C2C(=O)N(CN4CCOCC4)C(=O)C2C31 (stereo unspecified) |  | > 60.4 |  |  | > 73.2 µM |  | > 59.5 µM |  |  | > 100 µM |  | > 86.9 |  | > 63.4 µM |  | > 100 µM |  | > 61.1 µM | > 100 µM | > 66 µM
